Molecules are shown by their SMILES.

Experimental findings from patent publication US4215215A, “9-Phenyl-nonate traene compounds” (Hoffmann-La Roche Inc., priority 1979, dated 1980) are described below.

One data set is described as follows: in vivo. To be noted: mouse, ip, mice; for LD50 at 24 h: After 1 day; for LD50 at 24 h / LD50 at 240 h / LD50 at 480 h: intraperitoneal, in rape-oil; for LD50 at 240 h: After 10 days; for LD50 at 480 h: After 20 days; for LD50: intraperitoneal administration in rape-oil, no time stated, read-out: acute toxicity [LD50].
For a further data set, the system named is papillomas. Briefly: Papilloma test (tumors induced with dimethylbenzanthracene and croton oil). Particulars: intraperitoneal, within 2 weeks. The data set is classed as in vivo. From the text: The compounds of formula I are effective for utilizing tumors such as papillomas. In the papilloma test, tumors induced with dimethylbenzanthracene and croton oil regress. The diameters of the papillomae decline within 2 weeks on intraperitoneal administration.

Turning to `COc1cc(C)c(C=CC(C)=CC=CC(C)=CC(=O)O)c(C)c1C` [Substance A, 9-(4-methoxy-2,3,6-trimethyl-phenyl)-3,7-dimethyl-nona-2,4,6,8-tetraen-1-oic acid], in the data set “in vivo”, the LD50 (usually the dose expected to kill half of the subjects tested) at 24 h was more than 4000 mg/kg, the median lethal dose (LD50) at 240 h worked out at 700 mg/kg, the LD50 at 480 h stood at 700 mg/kg and the LD50 stood at 700 mg/kg. Besides, in the data set with papillomas (50 mg/kg/week), the “decline of the diameters of the papillomae” value (“decline” for short) is recorded as 38%. Besides, the “decline” value with papillomas (100 mg/kg/week) was 69%.
For the molecule `CCOC(=O)C=C(C)C=CC=C(C)C=Cc1c(C)cc(OC)c(C)c1C` [Substance B, 9-(4-methoxy-2,3,6-trimethyl-phenyl)-3,7-dimethyl-nona-2,4,6,8-tetraen-1-oic acid ethyl ester], in the data set “in vivo”, the LD50 at 24 h is more than 4000 mg/kg, the 50% lethal dose (LD50) at 240 h is 1900 mg/kg, the median lethal dose (LD50) at 480 h turned out to be 1000 mg/kg and the LD50 was 1000 mg/kg. In addition, the “decline” value in the data set on papillomas (25 mg/kg/week) is recorded as 45%. In addition, the “decline” value with papillomas (50 mg/kg/week) is recorded as 63%.
